Test results: PubChem BioAssay AID1918952 (Molecular Pharmacology Branch, DTP, NCI, 2023)
Values joined by “and” are separate entries in the source; they are usually repeats but may differ in a detail not shown here. Equal entries are not always repeated.

Tested on: LG0703-F948-PDC complex spheroid viability
Test: Anticancer human tumor LG0703-F948-PDC patient-derived lung adenocarcinoma cell line growth inhibition
Settings: for viability, T/C: stronger effect = lower value
Excerpt: Multicellular complex tumor spheroid response to LSD1 Inhibitor Iadademstat in combination with a variety of drugs and investigational agents in selected tumor cell lines
The current study was undertaken to assess response to LSD1 inhibitors in combination with standard-of-care drugs and investigational agents in solid tumor complex spheroid models as well as in the K-562 leukemia. Complex spheroids include a stromal component modeled by human endothelial cells (HUVEC) and fibroblasts modeled by human mesenchymal stem cells (MSCs). The concentration ranges selected for each drug and investigational agent were based upon clinically achievable concentrations if the clinical Cmax of the agent was known.
Compounds. The drugs and investigational agents used in this study are listed on Table 1. All of the agents used, including staurosporine (NSC755774) and gemcitabine (NSC613327), were obtained from the Developmental Therapeutics Program, NCI. FDA-approved anticancer drugs are available from the NCI at http://dtp.nci.nih.gov/branches/dscb/oncology_drugset_explanation.html. Drugs and investigational agents were >95% pure by proton nuclear magnetic resonance (NMR) and liquid chromatography/mass spectrometry (LC/MS). Stock solutions were prepared at 400x in DMSO, stored at -70 degrees C, and diluted in fresh medium prior to their use. The final concentration of DMSO in cell culture wells never exceeded 0.25% (v/v). The FDA-approved anticancer drug set is available from the Developmental Therapeutics Program at https://dtp.cancer.gov/organization/dscb/obtaining/available_plates.htm. All drugs and investigational agents were tested over a range starting from a high concentration at or near the clinical Cmax and decreasing in half-log increments. If the clinical Cmax for an agent had not been determined, the highest concentration tested was 10 microM.
Cell Lines. The patient-derived cancer cell (PDC) lines: 292921-168-R-J2-PDC, K24384-001-R-PDC, and 521955-158-R2-J5-PDC pancreatic carcinomas, 556581-035-R-J1 ovarian carcinoma, 324938-238-R-J1-PDC, 855422-203-R-J1-PDC and 883617-216-R-J1-PDC urothelial bladder carcinomas, 743489-274-T-PDC renal cell carcinoma, 138582-R-J1 Merkel cell tumor, K60290-347-R-J1 and K57222-313-R-J1-PDC glioblastomas, 653999-131-R-J2-PDC, LG0703-F948-PDC, and 349418-098-R-PDC non-small cell lung carcinomas, 885512-296-R-J2-PDC, 171881-019-R-J1-PDC breast carcinomas and 186277-243-T-J2-PDC and 233499-124-R-J2-PDC colon carcinomas were obtained from the NCI Patient-Derived Models Repository (PDMR, https://pdmr.cancer.gov). The established cell lines NCI/ADR-RES (RRID:CVCL_14520 and OVCAR-5 (RRID:CVCL_1628) ovarian carcinomas, 786-O (RRID:CVCL_1051) and A498 (RRID:CVCL_A498) renal cell carcinoma, NCI-H211 (ATCC, cat. CRL-5824; RRID:CVCL_1529), NCI-H196 (ATCC, cat. CRL-5823, RRID:CVCL_1509), SW 1271 (ATCC, cat. CRL-2177, RRID:CVCL_1716) and NCI-H1876 (ATCC, cat. CRL-5902, RRID:CVCL_1503) small cell lung carcinomas, MDA-MB-231 (RRID:CVCL_0062) and MDA-MB-468 (RRID:CVCL_0419)breast carcinomas (10-12). Pooled donor human umbilical vein endothelial cells (HUVEC, Lonza, cat. CC-2519) and human mesenchymal stem cells (hMSC, Lonza, cat. PT-2501) were purchased from Lonza (Walkersville, MD).
Cell Culture. All cells were maintained in an incubator at 37 degrees C and 5% CO2 with 95% humidity. The PDC lines were cultured according to standard operating procedures established by the NCI PDMR (https://pdmr.cancer.gov). Briefly all PDCs were thawed and cultured in Matrigel-coated flasks prepared with a working solution of 1X Ham's F-12 nutrient mix, without supplementation (Invitrogen, Waltham, MA, cat. 11765054), 100 U/mL penicillin-streptomycin (Invitrogen, cat. 15140122), and 2.5% Matrigel (Corning Inc., Corning, NY, cat. 354248) for the first three passages. […]
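Further: spheroids exposed to agents for seven days before readout.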
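Wherever viability, T/C is given: 100% = DMSO vehicle control wells as normalization base.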

IC50 (curve of compound) | Structure (SMILES) | viability, T/C (compound 0.0316 µM) | viability, T/C (compound 0.1 µM) | viability, T/C (compound 0.316 µM) | viability, T/C (compound 1 µM) | viability, T/C (compound 0.00949 µM) | viability, T/C (compound 0.03 µM) | viability, T/C (compound 0.0949 µM) | viability, T/C (compound 0.3 µM) | also measured
1400 nM and 1380 nM | COc1ccc([C@@H](O)c2cc(-c3ncnc4cc(N5CCOCC5)ccc34)c(F)cc2Cl)nn1 | 96.8% and 94.9% | 95.5% and 89% | 83.9% and 78.1% | 64.1% and 62.8% | – | – | – | – | viability, T/C (compound 3.16 µM): 20.1% and 24%; viability, T/C (compound 10 µM): 3.89% and 4.14%
> 100 nM | Cn1ncnc1C1c2n[nH]c(=O)c3cc(F)cc(c23)NC1c1ccc(F)cc1 (stereo not given) | 93.5% and 93.3% | 79.6% and 91.1% | – | – | – | – | – | – | viability, T/C (compound 0.000316 µM): 97.7% and 106%; viability, T/C (compound 0.001 µM): 104% and 106%; viability, T/C (compound 0.00316 µM): 87.8% and 95.8%; viability, T/C (compound 0.01 µM): 93.7% and 109%
> 10000 nM | O=C(c1cc(Cc2n[nH]c(=O)c3ccccc23)ccc1F)N1CCN(C(=O)C2CC2)CC1 | 84.5% and 107% | 97.1% and 103% | 86.5% and 98.2% | 93.8% and 106% | – | – | – | – | viability, T/C (compound 3.16 µM): 85.7% and 85.5%; viability, T/C (compound 10 µM): 65.5% and 74.2%

The remaining lines, values behind:

Structure (SMILES) | IC50 (curve of compound) | viability, T/C (compound 0.0316 µM) | viability, T/C (compound 0.1 µM) | viability, T/C (compound 0.316 µM) | viability, T/C (compound 1 µM) | viability, T/C (compound 0.00949 µM) | viability, T/C (compound 0.03 µM) | viability, T/C (compound 0.0949 µM) | viability, T/C (compound 0.3 µM) | also measured
NC1CC1c1ccc(-c2cccc(O)c2)cc1 (stereo not given) | – | – | 94.9% and 98.4% | – | – | – | – | – | – | viability, T/C (compound 3.16 µM): 99.9% [middle of 24 runs]; IC50 (compound alone, run of 02/21/2022): > 10000 nM
NC1CCC(NC2CC2c2ccccc2)CC1 (stereo not given) | – | – | – | 99.4% and 101% and 110% | – | – | – | – | – | IC50 (compound alone, run of 02/15/2022): > 10000 nM
NS(=O)(=O)OCC1CC(n2ccc3c(NC4CCc5ccccc54)ncnc32)CC1O (stereo not given) | 590 nM and 545 nM | – | – | – | – | 103% and 93.6% | 110% and 98.5% | 102% and 92.3% | 74% and 62.3% | viability, T/C (compound 0.949 µM): 33.3% and 38.5%; viability, T/C (compound 3 µM): 15.6% and 20.2%
Nc1ccccc1NC(=O)c1ccc(CNC(=O)OCc2cccnc2)cc1 | 151 nM and 132 nM | – | – | – | – | 100% and 75.3% | 101% and 76.5% | 68.7% and 63.2% | 21.4% and 17.3% | viability, T/C (compound 0.949 µM): 1.46% and 1.45%; viability, T/C (compound 3 µM): 0.48% and 0.84%
Nc1ccn(C2OC(CO)C(O)C2(F)F)c(=O)n1 (stereo not given) | 2.05 nM and 1.79 nM | – | – | – | – | 35.1% and 35% | 37.9% and 33.9% | 36.3% and 30.8% | 32.1% and 25.6% | viability, T/C (compound 0.000949 µM): 64.8% and 61.2%; viability, T/C (compound 0.003 µM): 42.9% and 39.4%
Nc1ncn(C2CC(O)C(CO)O2)c(=O)n1 (stereo not given) | > 1000 nM | 88.3% and 95.8% | 91.7% and 91.4% | 83.5% and 92.4% | 79.6% and 91.2% | – | – | – | – | viability, T/C (compound 0.00316 µM): 85% and 110%; viability, T/C (compound 0.01 µM): 101% and 104%
Nc1ncn(C2CC(O)C(CO)S2)c(=O)n1 (stereo not given) | > 300 nM | – | – | – | – | 95.8% and 96.4% | 112% and 99.8% | 111% and 96.1% | 84.7% and 78.1% | viability, T/C (compound 0.000949 µM): 91.3% and 115%; viability, T/C (compound 0.003 µM): 118% and 98.8%
O=C(C=Cc1cccc(S(=O)(=O)Nc2ccccc2)c1)NO | 83.8 nM and 82.8 nM | – | – | – | – | 94.2% and 95.1% | 90.9% and 90.4% | 43.7% and 43.1% | 11.7% and 12.1% | viability, T/C (compound 0.949 µM): 1.64% and 1.58%; viability, T/C (compound 3 µM): 0.25% and 0.32%
O=C(C=Cn1cnc(-c2cc(C(F)(F)F)cc(C(F)(F)F)c2)n1)NNc1cnccn1 | 8.72 nM and 8.71 nM | 43.6% and 42.3% | 38% and 35.1% | 35.2% and 29.4% | 30.5% and 24.9% | – | – | – | – | viability, T/C (compound 0.00316 µM): 53.4% and 53.9%; viability, T/C (compound 0.01 µM): 51.9% and 52.1%
